Measurements taken from PubChem BioAssay AID1963843 (Molecular Pharmacology Branch, DTP, NCI, 2024).
pIC50: −log10 of the molar value.

System: 616215-338-R-J1-PDC complex spheroid viability
Assay: Anticancer human tumor 616215-338-R-J1-PDC patient-derived colon adenocarcinoma cell line growth inhibition [POLQ]
Settings: for pIC50: curve of first compound; for viability, T/C: stronger effect = lower value
How it was run: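 Growth inhibition in 3D: complex spheroids (tumor PDC, HUVEC, MSC) treated with POLQ inhibitor combinations; where Cmax unknown, highest tested concentration 10 microM, except SN-38 at 1 microM.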

[1] = second compound 0.0316 µM, first compound 0.0316 µM
[2] = second compound 0.0316 µM, first compound 0.1 µM
[3] = second compound 0.0316 µM, first compound 0.316 µM
[4] = second compound 0.0316 µM, first compound 1 µM
[5] = second compound 0.0316 µM, first compound 3.16 µM
[6] = second compound 0.0316 µM, first compound 10 µM
[7] = second compound 0.1 µM, first compound 0.0316 µM
[8] = second compound 0.1 µM, first compound 0.1 µM
[9] = second compound 0.1 µM, first compound 0.316 µM
[10] = second compound 0.1 µM, first compound 1 µM
[11] = second compound 0.1 µM, first compound 3.16 µM
[12] = second compound 0.1 µM, first compound 10 µM
[13] = second compound 0.316 µM, first compound 0.0316 µM
[14] = second compound 0.316 µM, first compound 0.1 µM
[15] = second compound 0.316 µM, first compound 0.316 µM
[16] = second compound 0.316 µM, first compound 1 µM
[17] = second compound 0.316 µM, first compound 3.16 µM
[18] = second compound 0.316 µM, first compound 10 µM
[19] = second compound 1 µM, first compound 0.0316 µM
[20] = second compound 1 µM, first compound 0.1 µM
[21] = second compound 1 µM, first compound 0.316 µM
[22] = second compound 1 µM, first compound 1 µM
[23] = second compound 1 µM, first compound 3.16 µM
[24] = second compound 1 µM, first compound 10 µM
[25] = second compound 3.16 µM, first compound 0.0316 µM
[26] = second compound 3.16 µM, first compound 0.1 µM
[27] = second compound 3.16 µM, first compound 0.316 µM
[28] = second compound 3.16 µM, first compound 1 µM
[29] = second compound 3.16 µM, first compound 3.16 µM
[30] = second compound 3.16 µM, first compound 10 µM
[31] = second compound 10 µM, first compound 0.0316 µM
[32] = second compound 10 µM, first compound 0.1 µM
[33] = second compound 10 µM, first compound 0.316 µM
[34] = second compound 10 µM, first compound 1 µM
[35] = second compound 10 µM, first compound 3.16 µM
[36] = second compound 10 µM, first compound 10 µM
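Note: spheroids exposed to compounds for one week before readout.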
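Throughout, for viability, T/C: percent viability relative to DMSO vehicle wells taken as 100%.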

COc1cccc2c1C(=O)c1c(O)c3c(c(O)c1C2=O)CC(O)(C(=O)CO)CC3OC1CC(N)C(O)C(C)O1 (stereo not drawn) + COC1C(OC(N)=O)C(O)C(Oc2ccc3c(O)c(NC(=O)c4ccc(O)c(CC=C(C)C)c4)c(=O)oc3c2C)OC1(C)C
pIC50 (second compound 0.0316 µM): 6.02
pIC50 (second compound 0.1 µM): 6.12
pIC50 (second compound 0.316 µM): 6.06
pIC50 (second compound 1 µM): 6.02
pIC50 (second compound 3.16 µM): 6.11
pIC50 (second compound 10 µM): 5.85
viability, T/C [1]: 98.8%
viability, T/C [2]: 102%
viability, T/C [3]: 79.2%
viability, T/C [4]: 52.5%
viability, T/C [5]: 8.11%
viability, T/C [6]: 1.26%
viability, T/C [7]: 110%
viability, T/C [8]: 100%
viability, T/C [9]: 69%
viability, T/C [10]: 49.2%
viability, T/C [11]: 9.57%
viability, T/C [12]: 1.74%
viability, T/C [13]: 106%
viability, T/C [14]: 97.8%
viability, T/C [15]: 71.8%
viability, T/C [16]: 55.5%
viability, T/C [17]: 5.27%
viability, T/C [18]: 0.89%
viability, T/C [19]: 118%
viability, T/C [20]: 110%
viability, T/C [21]: 86.5%
viability, T/C [22]: 53.7%
viability, T/C [23]: 6.46%
viability, T/C [24]: 0.25%
viability, T/C [25]: 102%
viability, T/C [26]: 105%
viability, T/C [27]: 79.9%
viability, T/C [28]: 41.9%
viability, T/C [29]: 9.53%
viability, T/C [30]: 0.27%
viability, T/C [31]: 99.6%
viability, T/C [32]: 102%
viability, T/C [33]: 76.2%
viability, T/C [34]: 70.4%
viability, T/C [35]: 7.3%
viability, T/C [36]: 0.34%

Nc1ccn(C2OC(CO)C(O)C2(F)F)c(=O)n1 (stereo not drawn) + COC1C(OC(N)=O)C(O)C(Oc2ccc3c(O)c(NC(=O)c4ccc(O)c(CC=C(C)C)c4)c(=O)oc3c2C)OC1(C)C
pIC50 (second compound 0.0316 µM): > 7.50
pIC50 (second compound 0.1 µM): 7.18
pIC50 (second compound 0.316 µM): 7.18
pIC50 (second compound 1 µM): 7.21
pIC50 (second compound 3.16 µM): 7.24
pIC50 (second compound 10 µM): 7.22
viability, T/C [1]: 49.3%
viability, T/C [2]: 32.9%
viability, T/C [3]: 24%
viability, T/C [4]: 35%
viability, T/C [5]: 34%
viability, T/C [6]: 30%
viability, T/C [7]: 62.5%
viability, T/C [8]: 42.8%
viability, T/C [9]: 28.5%
viability, T/C [10]: 29.1%
viability, T/C [11]: 30.1%
viability, T/C [12]: 35.3%
viability, T/C [13]: 56.9%
viability, T/C [14]: 46%
viability, T/C [15]: 26.4%
viability, T/C [16]: 27.7%
viability, T/C [17]: 32.1%
viability, T/C [18]: 32.9%
viability, T/C [19]: 60.1%
viability, T/C [20]: 42.7%
viability, T/C [21]: 24.4%
viability, T/C [22]: 23.2%
viability, T/C [23]: 32.6%
viability, T/C [24]: 29.3%
viability, T/C [25]: 64.8%
viability, T/C [26]: 39.5%
viability, T/C [27]: 23.1%
viability, T/C [28]: 27.8%
viability, T/C [29]: 30.6%
viability, T/C [30]: 30%
viability, T/C [31]: 69.3%
viability, T/C [32]: 34.6%
viability, T/C [33]: 28.5%
viability, T/C [34]: 28.1%
viability, T/C [35]: 28.4%
viability, T/C [36]: 36.5%

O=C(c1cc(Cc2n[nH]c(=O)c3ccccc23)ccc1F)N1CCN(C(=O)C2CC2)CC1 + COC1C(OC(N)=O)C(O)C(Oc2ccc3c(O)c(NC(=O)c4ccc(O)c(CC=C(C)C)c4)c(=O)oc3c2C)OC1(C)C
pIC50 (second compound 0.0316 µM): < 5.00
pIC50 (second compound 0.1 µM): < 5.00
pIC50 (second compound 0.316 µM): < 5.00
pIC50 (second compound 1 µM): < 5.00
pIC50 (second compound 3.16 µM): < 5.00
pIC50 (second compound 10 µM): < 5.00
viability, T/C [1]: 103%
viability, T/C [2]: 99.2%
viability, T/C [3]: 107%
viability, T/C [4]: 105%
viability, T/C [5]: 109%
viability, T/C [6]: 87.8%
viability, T/C [7]: 102%
viability, T/C [8]: 89%
viability, T/C [9]: 98.5%
viability, T/C [10]: 99.8%
viability, T/C [11]: 110%
viability, T/C [12]: 85.7%
viability, T/C [13]: 102%
viability, T/C [14]: 113%
viability, T/C [15]: 103%
viability, T/C [16]: 101%
viability, T/C [17]: 109%
viability, T/C [18]: 98.2%
viability, T/C [19]: 107%
viability, T/C [20]: 108%
viability, T/C [21]: 102%
viability, T/C [22]: 101%
viability, T/C [23]: 97%
viability, T/C [24]: 93.4%
viability, T/C [25]: 99.6%
viability, T/C [26]: 95%
viability, T/C [27]: 96.7%
viability, T/C [28]: 94.7%
viability, T/C [29]: 109%
viability, T/C [30]: 88.2%
viability, T/C [31]: 104%
viability, T/C [32]: 94%
viability, T/C [33]: 106%
viability, T/C [34]: 105%
viability, T/C [35]: 95.1%
viability, T/C [36]: 84.5%

O=c1[nH]cc(F)c(=O)[nH]1 + COC1C(OC(N)=O)C(O)C(Oc2ccc3c(O)c(NC(=O)c4ccc(O)c(CC=C(C)C)c4)c(=O)oc3c2C)OC1(C)C
pIC50 (second compound 0.0316 µM): < 5.00
pIC50 (second compound 0.1 µM): < 5.00
pIC50 (second compound 0.316 µM): < 5.00
pIC50 (second compound 1 µM): < 5.00
pIC50 (second compound 3.16 µM): < 5.00
pIC50 (second compound 10 µM): < 5.00
viability, T/C [1]: 101%
viability, T/C [2]: 94.6%
viability, T/C [3]: 73.4%
viability, T/C [4]: 61.1%
viability, T/C [5]: 60.7%
viability, T/C [6]: 68.7%
viability, T/C [7]: 99.4%
viability, T/C [8]: 96.3%
viability, T/C [9]: 75.3%
viability, T/C [10]: 64.2%
viability, T/C [11]: 61%
viability, T/C [12]: 61.9%
viability, T/C [13]: 100%
viability, T/C [14]: 97.2%
viability, T/C [15]: 67.3%
viability, T/C [16]: 59.3%
viability, T/C [17]: 60%
viability, T/C [18]: 63%
viability, T/C [19]: 95.8%
viability, T/C [20]: 94.1%
viability, T/C [21]: 75.2%
viability, T/C [22]: 58.1%
viability, T/C [23]: 52.1%
viability, T/C [24]: 59%
viability, T/C [25]: 99.2%
viability, T/C [26]: 107%
viability, T/C [27]: 75.7%
viability, T/C [28]: 69.8%
viability, T/C [29]: 65.4%
viability, T/C [30]: 65.8%
viability, T/C [31]: 111%
viability, T/C [32]: 99.2%
viability, T/C [33]: 68.5%
viability, T/C [34]: 57.9%
viability, T/C [35]: 54.2%
viability, T/C [36]: 61.2%
